The text below walks through data of publication PMC8858684 (FEBS letters, 2021).

This experiment concerns the target CTX-M-14 β-lactamase (Escherichia coli, UniProt Q9L5C7). The experiment is described as follows: hydrolysis kinetics. The format is biochemical. Particulars: read-out: Cefotaxime / Km; purified enzyme.

`CO/N=C(\C(=O)N[C@@H]1C(=O)N2C(C(=O)O)=C(COC(C)=O)CS[C@H]12)c1csc(N)n1` [cefotaxime]: the Km worked out at 83.8 ± 2.3 µM.
